Patent US10844051B2, “Substituted oxazoles for the treatment of cancer” (THE ROYAL INSTITUTION FOR THE ADCANCEMENT OF …, priority 2015, dated 2020)
“Also recorded” adds a separate entry of the source.

Key:
human GATA2 = target: T1, human GATA2 (Homo sapiens, UniProt P23769); assay: GATA2-dependent reporter assay in IHH cells; format: cell-based; conditions: GATA-Luc reporter, 48 h
T1 construct: expressed in transfected cells; host or cells: IHH
T1 sequence (P23769 1-480): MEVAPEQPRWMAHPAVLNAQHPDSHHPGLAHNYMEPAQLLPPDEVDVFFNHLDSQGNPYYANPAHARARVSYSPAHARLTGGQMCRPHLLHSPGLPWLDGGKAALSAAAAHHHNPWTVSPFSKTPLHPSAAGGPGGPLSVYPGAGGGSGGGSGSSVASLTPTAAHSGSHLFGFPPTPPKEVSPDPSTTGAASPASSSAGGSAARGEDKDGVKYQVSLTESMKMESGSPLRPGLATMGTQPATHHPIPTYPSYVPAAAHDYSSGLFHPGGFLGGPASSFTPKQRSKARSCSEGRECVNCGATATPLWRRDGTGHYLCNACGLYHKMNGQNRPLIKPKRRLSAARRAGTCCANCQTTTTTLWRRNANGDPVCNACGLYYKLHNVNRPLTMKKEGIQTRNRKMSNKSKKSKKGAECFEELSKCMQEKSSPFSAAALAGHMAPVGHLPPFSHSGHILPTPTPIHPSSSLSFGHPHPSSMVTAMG
Protocol: K7174 is a known GATA2 inhibitor. The IHH cells were transiently transfected with empty vector (for the NT) or human GATA2-expressing plasmid as well as pRL-TK (internal control) and GATA-Luc reporter plasmids. Cells were exposed to DMSO vehicle or compounds for 48 h. Experiments were in triplicate.

[1] = tested on: interferon signaling pathway in THP-1 cells; assay: Western blot, interferon signaling in THP-1 cells; format: cell-based; conditions: 16 hours
Protocol: THP1 cells were treated for 16 hours with the indicated concentration (μM) of compounds or DMSO vehicle control. Whole-cell extracts were prepared and subjected to Western blot analysis with the antibodies as indicated.

human STING (hSTING) = target: T2, human STING (hSTING) (Homo sapiens, UniProt Q86WV6); assay: hSTING ISRE-luc reporter assay in 293T cells; format: cell-based; conditions: 24 hours
T2 construct: expressed in transfected cells; host or cells: 293T
Protocol: ISRE-luc (reporter), pRL-TK (internal control) and hSTING-expressing plasmids were transiently transfected into 293T cells. Cells were exposed to DMSO vehicle control or compounds for 24 hours. Experiments were done in triplicate.

ERG = target: T3, ERG (Homo sapiens, UniProt P11308); assay: ERG-dependent reporter assay in HEK293 cells; format: cell-based; set-up: expressed in transfected cells; host or cells: HEK293; conditions: PUx3-Luc reporter, 48 hours, designated doses
T3 sequence (P11308 1-486 isoform P11308-3): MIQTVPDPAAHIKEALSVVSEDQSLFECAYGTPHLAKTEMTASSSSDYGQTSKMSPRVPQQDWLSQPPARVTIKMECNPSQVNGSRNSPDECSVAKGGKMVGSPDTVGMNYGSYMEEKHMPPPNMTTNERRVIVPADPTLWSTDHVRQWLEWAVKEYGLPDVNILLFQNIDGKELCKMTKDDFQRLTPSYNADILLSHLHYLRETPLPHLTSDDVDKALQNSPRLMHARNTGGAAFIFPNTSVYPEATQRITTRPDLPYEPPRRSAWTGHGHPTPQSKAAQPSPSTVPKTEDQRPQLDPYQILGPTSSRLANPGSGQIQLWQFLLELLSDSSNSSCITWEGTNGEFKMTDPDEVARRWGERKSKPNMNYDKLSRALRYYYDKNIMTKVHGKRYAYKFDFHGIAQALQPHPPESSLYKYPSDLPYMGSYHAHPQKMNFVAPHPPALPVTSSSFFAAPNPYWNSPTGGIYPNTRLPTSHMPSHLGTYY
Protocol: (§1) HEK293 cells were transiently transfected with empty vector (for the NT) or ERG-expressing plasmid as well as pRL-TK (internal control) and PUx3-Luc reporter. Cells were then exposed to DMSO vehicle or compounds at designated doses for 48 hours. Experiments were done in triplicate.

ESE-1 = target: T4, ESE-1 (Homo sapiens, UniProt P78545); assay: ESE-1 dependent reporter assay in HEK293 cells; format: cell-based; conditions: 48 hours
T4 construct: expressed in transfected cells; host or cells: HEK293
T4 sequence (P78545 1-371): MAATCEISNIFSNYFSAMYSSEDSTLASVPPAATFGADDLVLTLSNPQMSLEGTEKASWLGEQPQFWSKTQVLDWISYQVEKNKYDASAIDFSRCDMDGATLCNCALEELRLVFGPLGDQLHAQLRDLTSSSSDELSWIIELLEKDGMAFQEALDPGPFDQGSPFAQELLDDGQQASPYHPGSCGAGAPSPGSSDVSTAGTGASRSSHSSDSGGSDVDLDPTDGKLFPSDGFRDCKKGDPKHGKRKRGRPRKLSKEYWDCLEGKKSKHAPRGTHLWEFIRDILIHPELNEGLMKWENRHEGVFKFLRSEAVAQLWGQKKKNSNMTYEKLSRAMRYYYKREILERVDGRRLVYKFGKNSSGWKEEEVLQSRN
Protocol: as §1
Experiments were done as described above in FIG. 1.1a) except that ERG plasmid was replaced by ESE-1 plasmid.

[2] = tested on: EZH2, c-Myc and ERG expression in VCaP cells; assay: Expression of EZH2, c-Myc and ERG in VCaP cells; format: cell-based; conditions: 10 μM, 72 hours
Protocol: VCaP cells were exposed to DMSO vehicle control, 648, 698 and 891 at 10 μM for 72 hours in DMEM medium plus 10% FBS or phenol red-free DMEM medium plus 10% charcoal-stripped FBS (CS-FBS).

[3] = target: T5, recombinant protein of human GATA2 (Homo sapiens, UniProt P23769); assay: SPR analysis on amine-coupled GATA2; format: binding; conditions: 50 μM each
T5 sequence (P23769 1-480): T1 sequence (P23769 1-480)
Source text: In embodiments of the invention, the androgen-bound AR is regressing GATA2 expression and inhibition of AR via castration or use of antiandrogen releases such expression. […] Overexpression of GATA2 confers resistance to antiandrogen bicalutamide (Bic) (FIG. 2.9). Compound 673 is effective against the LNCaP stably transfected with GATA2-expressing plasmid (referred to as LNCaP-GATA2 cells) (FIG. 2.8).

mouse STING (mSTING) = target: T6, mouse STING (mSTING) (Mus musculus, UniProt Q3TBT3); assay: mSTING ISRE-luc reporter assay in 293T cells; format: cell-based; conditions: 24 hours
T6 construct: expressed in transfected cells; host or cells: 293T
T6 sequence (Q3TBT3 1-378): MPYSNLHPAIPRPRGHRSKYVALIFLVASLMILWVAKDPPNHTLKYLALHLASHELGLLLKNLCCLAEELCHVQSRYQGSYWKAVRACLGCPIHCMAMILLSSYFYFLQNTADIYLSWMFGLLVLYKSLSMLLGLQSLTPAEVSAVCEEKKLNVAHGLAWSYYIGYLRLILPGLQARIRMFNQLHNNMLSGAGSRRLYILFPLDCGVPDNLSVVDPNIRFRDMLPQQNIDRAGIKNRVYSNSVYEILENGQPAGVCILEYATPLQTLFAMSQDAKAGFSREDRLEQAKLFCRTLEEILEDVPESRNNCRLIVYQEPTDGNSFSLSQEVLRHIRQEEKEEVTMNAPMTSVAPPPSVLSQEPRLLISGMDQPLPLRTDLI
Protocol: ISRE-luc (reporter), pRL-TK (internal control) and mSTING-expressing plasmids were transiently transfected into 293T cells. Cells were exposed to DMSO vehicle control or compounds for 24 hours. Experiments were done in triplicate.

hSTING and/or mSTING = assay: hSTING- or mSTING-dependent ISRE-luc reporter assay in 293T cells; format: cell-based; conditions: 24 hours
Protocol: ISRE-luc (reporter), pRL-TK (internal control) and hSTING- or mSTING-expressing plasmids were transiently transfected into 293T cells. Cells were exposed to DMSO vehicle control or compounds for 24 hours. Experiments were done in triplicate.

T2 sequence (Q86WV6 whole entry H232R): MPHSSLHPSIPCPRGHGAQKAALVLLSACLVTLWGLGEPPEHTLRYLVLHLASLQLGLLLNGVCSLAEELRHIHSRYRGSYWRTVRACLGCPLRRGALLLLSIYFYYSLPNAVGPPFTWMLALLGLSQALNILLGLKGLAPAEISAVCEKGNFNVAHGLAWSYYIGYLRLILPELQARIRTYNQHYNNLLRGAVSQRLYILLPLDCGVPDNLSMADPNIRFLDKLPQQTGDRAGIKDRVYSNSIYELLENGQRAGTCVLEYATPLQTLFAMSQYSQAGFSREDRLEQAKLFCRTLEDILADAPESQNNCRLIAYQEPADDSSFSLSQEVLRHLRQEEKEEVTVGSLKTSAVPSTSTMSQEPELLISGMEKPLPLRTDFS

SMILES: COc1cccc(-c2oc(CCCc3c[nH]c4ccccc34)nc2-c2ccco2)c1 [Compound 840]
- GATA2 inhibition in GATA2-dependent reporter assay (human GATA2): GATA2 inhibitors
- activation of interferon signaling pathway (Western blot) [1]: activate interferon signaling pathway
- activation of hSTING in ISRE-luc reporter assay (human STING (hSTING)): activate hSTING

SMILES: Fc1ccccc1CSc1ncnc2c1ncn2C1CCCO1 (centres unmarked) [Compound V131]
- ERG inhibition in ERG-dependent reporter assay (ERG): potent inhibitor of ERG; also recorded: ERG inhibitors
- ESE-1 inhibition in ESE-1 dependent reporter assay (ESE-1): ESE-1 inhibitors

SMILES: Oc1ccccc1-c1nc(Cc2c[nH]c3ccccc23)oc1-c1ccccc1O [Compound 891]
- inhibition of expression of EZH2, c-Myc and ERG [2]: inhibit expression of EZH2, c-Myc and ERG

SMILES: Oc1ccc(-c2nc(Cc3c[nH]c4ccccc34)oc2-c2ccc(O)cc2)cc1 [Compound 698]
- ERG inhibition in ERG-dependent reporter assay (ERG): ERG inhibitors
- activation of hSTING in ISRE-luc reporter assay (human STING (hSTING)): activate hSTING
- ESE-1 inhibition in ESE-1 dependent reporter assay (ESE-1): ESE-1 inhibitors
- inhibition of expression of EZH2, c-Myc and ERG [2]: inhibit expression of EZH2, c-Myc and ERG

SMILES: COc1ccc(-c2nc(CCCc3c[nH]c4ccccc34)oc2-c2ccc(OC)cc2)cc1 [Compound 670]
- binding to amine-coupled GATA2 (SPR) [3]: Direct binding; also recorded: Specific binding
- activation of hSTING in ISRE-luc reporter assay (human STING (hSTING)): activate human STING (hSTING)

SMILES: COc1cccc(-c2nc(CCCc3c[nH]c4ccccc34)oc2-c2cccc(OC)c2)c1 [Compound 640]
- activation of hSTING in ISRE-luc reporter assay (human STING (hSTING)): activate human STING (hSTING)
- activation of mSTING in ISRE-luc reporter assay (mouse STING (mSTING)): activate mouse STING (mSTING)

SMILES: c1ccc(CN2CCN(Cc3nc(-c4ccccc4)c(-c4ccccc4)o3)CC2)cc1 [Compound 1176]
- activation of interferon signaling pathway (Western blot) [1]: activate interferon signaling pathway
- activation of hSTING and/or mSTING in ISRE-luc reporter assay (hSTING and/or mSTING): activate hSTING and/or mSTING
- activation of hSTING and/or mSTING in ISRE-luc reporter assay (hSTING and/or mSTING; 10 μM): activate hSTING and/or mSTING
